Assay results as given in paper PMC9157788, “Design, Synthesis, and Apoptosis-Promoting Effect Evaluation of Rhopaladins’ Analog 4-Arylidene-5-Oxopyrrolidine Derivatives” (Frontiers in Chemistry, 2022).
pIC50: −log10 of the molar value.

What was measured:
Bcl-2 = experiment: Western blot, Bcl-2 expression in HepG2 cells; format: cell-based, human; details: HepG2, 25 μM, 48 h, vs DMSO control, p < 0.01
Method: (§1) The experimental steps of the Western blotting assay referred to Lin’s study ([Lin et al., 2020]). After treatment with different concentrations of RPDPRH (0, 6.25, 12.5, and 25 μM) for 48 h, hepatocarcinoma cells were lysed with an ice-cold RIPA protein lysis buffer (Beyotime, China). Total cell lysates were prepared with RIPA lysis buffer containing phosphatase inhibitors (Roche, China) and protease inhibitors (MedChemExpress, United States). Total cell lysates were centrifuged at 10,000 g for 10 min at 4°C to obtain the supernatant. The protein concentration was detected according to the BCA Protein Assay Kit (Beyotime, China). Then, 5× SDS loading buffer (Beyotime, China) was added to the supernatant and boiled at 100°C for 10 min. The obtained protein samples were stored at −80°C.
(§2) The protein samples (20 μg) were resolved on 4% concentration glue and 12% separating glue and prepared according to the SDS-PAGE Gel Quick Preparation Kit procedure (Beyotime, China). After electrophoresis at 80 V for 1.5–2 h, the proteins were wet-transferred onto a polyvinylidene difluoride membrane (PVDF, Millipore) at 300 mA for 1–1.5 h. […]

HepG2 cells [1] = experiment: MTT cell viability assay, HepG2; format: cell-based; details: Homo sapiens, 48 h, read-out: Half inhibitory concentration (IC50), HepG2
Method: (§3) HepG2 (human epidermoid hepatocellular carcinoma cell), 7402 (human epidermoid hepatocellular carcinoma cell), C-33A (human epidermoid cervical carcinoma cell), and HeLa (human epidermoid cervical adenocarcinoma cell) were incubated in Dulbecco’s modified Eagle’s medium (DMEM), which was purchased from Gibco (Grand Island, NY, United States). SiHa cells (human epidermoid cervical squamous cell carcinoma) were incubated in minimum essential medium (MEM, also from Gibco). CaSki (human epidermoid cervical carcinoma cell) and LO2 (human normal liver cell) were incubated in minimum essential medium (MEM, also from Gibco). All cells were maintained at 37°C in a humidified incubator with 5% carbon dioxide, and the media contained 10% fetal bovine serum (FBS, Corning, United States) and 1% penicillin–streptomycin antibiotic solution (Corning, United States). SiHa and CaSki were bought from the China Center for Type Culture Collection (CCTCC). The other five types of cancer cell lines were obtained from the Experiment Center of Medicine, Sinopharm Dongfeng Hospital, Hubei University of Medicine. The compounds were dissolved in dimethyl sulfoxide (DMSO, MP Biomedicals, United States), and cisplatin was purchased from Aladdin, Shanghai, China. The control (0 μM) group was treated with DMSO only in the same conditions, and the DMSO content in the medium was less than 0.1%.
(§4) Cell viability was measured by a 3-(4,5-dimethylthiazol-2-yl)-2,5-diphenyltetrazolium bromide (MTT, MultiSciences, China) assay. The specific experimental steps referred to our previous research ([Zhu et al., 2020]). For each cell line, cells were digested and seeded in 96-well plates at a density of 1 × 10^3 cells/well. […] Then, the formed formazan crystals were dissolved in DMSO, and the plates were estimated in a […] microplate reader (BioTek Inc., Bio-Tek MQX200) at a wavelength of 490 nm. Optical density (OD) values were obtained, and the inhibition rate and IC50 of each compound on different cells were calculated by GraphPad Prism 8.0.1 software. […]

7402 cells = experiment: Wound healing assay, 7402; format: cell-based, human; details: 48 h
Method: (§5) The experimental procedures were performed according to conventional methods ([Kovaříková et al., 2014]). Hepatocarcinoma cells at the logarithmic growth stage were taken and inoculated into six-well plates with 2 × 10^4 cells/well. When the cell density is about 80%, the cell wound was scratched with pipette tips. Cells were then washed with PBS and added to the cell culture broth containing 1% serum with varying concentrations of RPDPRH (0 μM, 6.25, 12.5, and 25 μM) for 48 h. Pictures were taken at 0 and 48 h under a microscope (100×). Wound healing rate (%) = [(0 h scratch distance−48 h scratch distance)/0 h scratch distance] × 100%.

Bax [2] = experiment: Western blot, Bax expression in 7402 cells; format: cell-based, human; details: 7402, 25 μM, 48 h, vs DMSO control
Method: as §1, §2

HepG2 cells [3] = experiment: Wound healing assay, HepG2; format: cell-based, human; details: 48 h
Method: as §5

LO2 cells = experiment: MTT cell viability assay, normal liver LO2; format: cell-based, human
Method: as §3
Cell viability was measured by a 3-(4,5-dimethylthiazol-2-yl)-2,5-diphenyltetrazolium bromide (MTT, MultiSciences, China) assay. The specific experimental steps referred to our previous research ([Zhu et al., 2020]). For each cell line, cells were digested and seeded in 96-well plates at a density of 1 × 10^3 cells/well. After 24 h of culture, the cells were adherent and treated with varying concentrations of RPDPRH (0, 3.125, 6.25, 12.5, 25, 50, and 100 μM). Cells without treatment were used as a solvent control group (0 μM, DMSO) and those with cisplatin treatment served as a positive control. After 48 h of treatment, MTT solution was added and incubated for 4 h. Then, the formed formazan crystals were dissolved in DMSO, and the plates were estimated in a […] microplate reader (BioTek Inc., Bio-Tek MQX200) at a wavelength of 490 nm. Optical density (OD) values were obtained, and the inhibition rate and IC50 of each compound on different cells were calculated by GraphPad Prism 8.0.1 software. Cell inhibition rate (%) = 1− [(OD experimental-OD blank)/(OD control-OD blank)] × 100%.

HeLa cells = experiment: MTT cell viability assay, HeLa; format: cell-based; details: Homo sapiens, 48 h, read-out: Half inhibitory concentration (IC50), HeLa
Method: as §3, §4

Bax [4] = experiment: Western blot, Bax expression in HepG2 cells; format: cell-based, human; details: HepG2, 25 μM, 48 h, vs DMSO control
Method: as §1, §2

pIC50 (HepG2 cells [1]): 4.91
pIC50 (HeLa cells): 4.82
Structure (SMILES): O=C1/C(=C/c2ccc(Cl)cc2)CC(/C=C/c2ccc(Cl)cc2)(C(=O)NC2CCCCC2)N1c1ccc(F)cc1 (stereo not shown) [RPDPRH, (2E, 4E)-4-(4-chlorobenzylidene)-2-(4-chlorostyryl)-N-cyclohexyl-1-(4-fluorophenyl)-5-oxopyrrolidine-2-carboxamide]
expression of anti-apoptotic protein Bcl-2 (Bcl-2): decrease
wound healing rate (7402 cells; 7402, 25 μM, vs DMSO control, p < 0.01): reduced significantly
wound healing rate (7402 cells; 7402, 6.25, 12.5 and 25 μM): significantly reduced
ratio of Bax/Bcl-2 (Bax [2]): increase obviously
expression of pro-apoptotic protein Bax (Bax [2]; p < 0.05): significant increase
wound healing rate (HepG2 cells [3]; HepG2, 25 μM, vs DMSO control, p < 0.001): significantly decreased
wound healing rate (HepG2 cells [3]; HepG2, 6.25, 12.5 and 25 μM): significantly reduced
pIC50 (LO2 cells; Homo sapiens, L02, normal liver LO2 cells, 48 h, read-out: Half inhibitory concentration (IC50), LO2): < 4.00
toxicity to the normal hepatic LO2 cells (LO2 cells; LO2 cells, insignificant inhibition at 100 µM (Table 1 footnote b)): no significant toxicity
ratio of Bax/Bcl-2 (Bax [4]): increase obviously
expression of pro-apoptotic protein Bax (Bax [4]; p < 0.05): significant increase
